Type in all cases: cell-based
The test system of data set [1] is HVT (turkey herpes virus). Briefly: HVT multiplication suppression, plaque assay in CEF cells. To be noted: for Ratio (relative ratio of virus titer, no peptide = 1) / Titer: HVT FC-126 strain in CEF cells; for Titer: six days; for viral multiplication suppression effect (antiviral activity), in words: HVT in CEF cells, peptide 10, 50, 100 μM, number and size of plaques.

The test system of data set [2] is MDV (Marek's disease virus). To be noted: for antiviral activity (viral multiplication suppression effect) against MDV, in words: MDV in CEF cells, peptide 50 and 100 μM; for Ratio / Titer: MDV type 1 Md5 strain in CEF cells; for Titer: four days.
Data set [3] concerns MDCK (Madrin Darby Canine Kidney) cell. Briefly: Cytotoxicity control, MDCK cells without virus (Example 4). The note with it: 48 hours. As for the experimental part:
The culture supernatant was removed from wells where a full sheet (monolayer) composed of MDCK cells was formed by the above culture. 2 mL of PBS was added to the wells and the wells were washed. This washing was repeated twice. Next, a viral solution prepared with MEM medium (no FBS added, containing 0.02% dextran and 1 μg/mL trypsin) so as to have 10^4 PFU/mL was used for inoculation at 0.1 mL per well, and culture was incubated in the presence of 5% CO2, at 34° C. for one hour, to adsorb the virus to the cells. After the incubation, was added 2 mL of MEM medium (no FBS added, containing 0.02% dextran and 1 μg/mL trypsin) containing the test peptide at a given concentration so as to have 50 μM and 10 μM final concentrations of peptide in each well after addition. Note that a well was prepared as a control plot (control), in which 2 mL of the above-mentioned MEM medium not containing peptide was added. In addition, as the control group for evaluating the cytotoxicity of the test peptide, 2 mL of MEM medium (no FBS added, containing 0.02% dextran and 1 μg/mL trypsin) containing the test peptide at a given concentration was added each to wells (with full sheet formed) containing MDCK cells to which the above-mentioned viral solution was not added (that is to say, not containing virus). Then incubation was carried out in the presence of 5% CO2 at 34° C. for 48 hours.

Read-outs that look alike come from different tables or passages of the source. No end group written: not given here.

Turning to “LPPLERLTLD RQARRNRRRRWR-CONH2 (LPPLERLTLDRQARRNRRRRWR-NH2) [Sample 2, NES … on the N-terminal side, NLS … on the C-terminal side; 22 residues]”, the “Ratio (relative ratio of virus titer, no peptide = 1)” value stood at 0.91 in data set [1] (peptide 10 μM), 0.59 in data set [1] (peptide 50 μM) and 0.57 in data set [1] (peptide 100 μM). Moreover, the Titer is 8.0 × 10^4 PFU/mL in data set [1] (peptide 10 μM), 5.2 × 10^4 PFU/mL in data set [1] (peptide 50 μM) and 5.0 × 10^4 PFU/mL in data set [1] (peptide 100 μM).
For the substance “LPPLERLTLD-CONH2 (LPPLERLTLD-NH2) [Comparative Sample 2, reference compound]”, the “viral multiplication suppression effect (antiviral activity), in words” value in data set [1] is reported as “no viral multiplication suppression effect”.
Regarding “RKKKRKV LALKAGLDI-CONH2 (RKKKRKVLALKAGLDI-NH2) [Sample 4, modified SV40 NLS plus modified mouse PKI NES with one leucine deleted; 16 residues]”, the “Ratio (relative ratio of virus titer, no peptide = 1)” value in data set [1] (peptide 10 μM) is listed as 0.95; in data set [1] (peptide 50 μM), 0.47; in data set [1] (peptide 100 μM), 0.24. For the same substance, the Titer in data set [1] (peptide 10 μM) is recorded as 1.8 × 10^4 PFU/mL; in data set [1] (peptide 50 μM) it was 9.0 × 10^3 PFU/mL; in data set [1] (peptide 100 μM) it was 4.5 × 10^3 PFU/mL; in data set [2] (peptide 50 μM), 4.27 × 10^6 TCID50; in data set [2] (peptide 100 μM), 3.16 × 10^6 TCID50. The “antiviral activity (viral multiplication suppression effect) against MDV, in words” value in data set [2] is “satisfactory antiviral activity”. For the same substance, the Ratio in data set [2] (peptide 50 μM) amounted to 0.63; in data set [2] (peptide 100 μM) it was 0.47.
As for “RKKKRKV-CONH2 (RKKKRKV-NH2) [Comparative Sample 4, reference compound]”, the “viral multiplication suppression effect (antiviral activity), in words” value in data set [1] is reported as “no viral multiplication suppression effect”.
With “RQARRNRRRRWR LPPLERLTLD-CONH2 (RQARRNRRRRWRLPPLERLTLD-NH2) [Sample 1, HIV REV-derived NLS on the N-terminal side, HIV-derived NES on the C-terminal side; 22 residues]”, the “Ratio (relative ratio of virus titer, no peptide = 1)” value in data set [1] (peptide 10 μM) worked out at 0.75; in data set [1] (peptide 50 μM), 0.25; in data set [1] (peptide 100 μM), 0.13. Moreover, the Titer in data set [1] (peptide 10 μM) was 7.8 × 10^4 PFU/mL; in data set [1] (peptide 50 μM), 2.6 × 10^4 PFU/mL; in data set [1] (peptide 100 μM) it was 1.4 × 10^4 PFU/mL; in data set [2] (peptide 50 μM), 2.40 × 10^6 TCID50; in data set [2] (peptide 100 μM), 6.76 × 10^5 TCID50. The “antiviral activity (viral multiplication suppression effect) against MDV, in words” value in data set [2] was “satisfactory antiviral activity”. Besides, the values for the Ratio in data set [2] (peptide 50 μM) and in data set [2] (peptide 100 μM) were 0.36 and 0.1, respectively.
Regarding “RQARRNRRRRWR-CONH2 (RQARRNRRRRWR-NH2) [Comparative Sample 1, reference compound]”, the “viral multiplication suppression effect (antiviral activity), in words” value in data set [1] was “no viral multiplication suppression effect”.
On to “YGRKKRRQRRR-CONH2 (YGRKKRRQRRR-NH2) [Comparative Sample 3, reference compound]”, for which the “viral multiplication suppression effect (antiviral activity), in words” value in data set [1] is given as “no viral multiplication suppression effect”.
With “YGRKKRRQRRRLPPLERLTLD-NH2 [Sample 3, YGRKKRRQRRR LPPLERLTLD-CONH2]”, the cytotoxicity entry in data set [3] is “no cytotoxicity was observed”.

The values are drawn from patent US8138146B2, “Antiviral peptide and antiviral agent” (priority 2006, dated 2012).
